# Reference: patent US20260365695A1, “NOVEL PEPTIDE EXHIBITING SKIN CONDITION IMPROVEMENT ACTIVITY AND COSMETIC COMPOSITION CONTAINING SAME” (DAEBONG LS CO., LTD., priority 2023, published 2026)
# Where a SMILES comes first, the peptide text is derived from it.
# Columns and labels:
# [1] = test system: procollagen type I peptide production; assay: Procollagen Type I Peptide (PIP) production in NHDF cells (EIA); assay type: cell-based, Human
# Description: Normal Human Dermal Fibroblasts (NHDF) were obtained from Lonza (Lonza Walkersville, Inc.) and cultured in FBM (Fibroblast Basal Medium) supplemented with 0.1% hFGF-B, insulin, GA-1000, and 2% FBS at 37 °C in a 5% CO2 incubator. Subculture was performed every 2 to 3 days.
# NHDF cells were seeded at 2.0×10^4 cells/well in a 24-well plate and incubated for 24 hours at 37 °C in a 5% CO2 incubator. After incubation, the culture medium was replaced with serum-free FBM, and the peptide prepared in the above Example was applied at concentrations of 1-100 μM, followed by incubation for 24 hours. The supernatant from each experimental group was collected, and the amount of procollagen released into the medium was measured. The positive control group was treated with ascorbic acid at a concentration of 0.001 v/v %. Measurement of procollagen levels was performed using a Procollagen Type I Peptide (PIP) EIA Kit (Takara Biomedical Co.) according to the manufacturer's protocol. The quantitative results of procollagen type I peptide production following treatment with the peptide of the Example are shown in Table 3 and FIG. 4.
# [2] = Cytotoxicity Evaluation in Macrophages (EZ-Cytox Assay); assay type: cell-based; conditions: mouse, positive control, LPS 1 μg/ml, RAW264.7 cells, control = 100, read-out: Cell viability (%)
# Description: (§1) RAW264.7 macrophage cells were obtained from the American Type Culture Collection (ATCC) and cultured in Dulbecco's Modified Eagle's Medium (DMEM) containing 100 units/mL penicillin-streptomycin and 10% (v/v) fetal bovine serum (FBS) at 37 °C in a 5% CO2 incubator, and subculture was performed every 2 to 3 days.
# The EZ-cytox assay is a representative method for measuring cell viability using the principle that water-soluble tetrazolium salts (WSTs) react with dehydrogenases of viable cells to produce a water-soluble orange formazan.
# To evaluate cytotoxicity, RAW264.7 cells were seeded at 1.5×10^4 cells/well in a 96-well plate using DMEM supplemented with 10% FBS and incubated for 18 hours at 37 °C in a 5% CO2 incubator. The test samples were then applied to the cultured cells. After treatment, EZ-cytox was added to each well and incubated for 30 minutes under the same conditions. Absorbance was measured at 450 nm using a microplate reader. The mean absorbance values of each sample group were compared with the control group to determine cell viability.
# [3] = test system: nitric oxide (NO) production; assay: Inhibition of Nitric Oxide (NO) Production (griess reagent) in LPS-stimulated RAW264.7 cells; assay type: cell-based; conditions: 24 hours; for NO Production (%): LPS 1 μg/ml, relative to LPS control = 100
# Description: as §1
# RAW264.7 cells were seeded at 1.5×10^5 cells/well in a 24-well plate and incubated for 18 hours at 37 °C in a 5% CO2 incubator. The cells were then treated with the peptide prepared in the above Example at concentrations of 50-200 μM and incubated for 24 hours.
# From each experimental group, 100 μL of the supernatant was collected into a 96-well plate, and 100 μL of griess reagent was added. The mixture was allowed to react at room temperature for 10 minutes, and absorbance was measured at 540 nm using a microplate reader. The positive control group was treated with 2 µM of 2-amino-4-methylpyridine (2-AM). The relative levels of NO production following the treatments described in the above Example, based on NO production induced by the stimulant (LPS), are shown in Table 1 and FIG. 2 below.
# [4] = test system: hyaluronic acid production; assay: Hyaluronic acid (HA) production in HaCaT cells (ELISA); assay type: cell-based, human
# Description: The HaCaT human keratinocyte cell line was obtained from Cell Line Service GmbH (Germany). The cells were cultured in DMEM containing 1% penicillin-streptomycin and 10% fetal bovine serum (FBS) at 37 °C in a 5% CO2 incubator, and subculture was performed every 2 to 3 days.
# HaCaT cells were seeded at 1.0×10^5 cells/well in a 24-well plate and incubated for 24 hours at 37 °C in a 5% CO2 incubator. After incubation, the culture medium was replaced with serum-free DMEM, and the peptide prepared in the above Example was applied at concentrations of 50-200 μM, followed by incubation for 24 hours.
# The supernatant from each experimental group was collected, and the amount of hyaluronic acid (HA) released into the medium was measured. The positive control group was treated with N-acetylglucosamine at a concentration of 10 mM. Measurement of hyaluronic acid production was conducted using a Hyaluronic Acid ELISA Kit (Cusabio Biotechnology Co., Ltd.) following the manufacturer's protocol.
# [5] = 50 μM, 24 hours, untreated group = 100
# [6] = 100 μM, 24 hours, untreated group = 100
smiles,measurement,setting,value
"O=C1O[C@H]([C@@H](O)CO)C(O)=C1O [Asc. A, ascorbic acid, reference compound]",activity at 10 µg/mL,"[1]; Homo sapiens, 24 h, 10 μg/mL, positive control, untreated group = 100",176 ± 3.91%
"Cc1ccnc(N)c1 [Example 2-AM, 2-amino-4-methylpyridine, reference compound]",viability at 10 µM,[2],94.1 ± 1.76%
"N[C@@H](Cc1ccc(O)cc1)C(=O)NCC(=O)N[C@@H](CO)C(=O)N[C@@H](CC(=O)O)C(=O)O [Example, Tyr-Gly-Ser-Asp] (H-YGSD-OH)",NO Production (%),[3]; 50 μM,101.55 ± 2.59%
same,NO Production (%),[3]; 100 μM,91.42 ± 4.58%
same,NO Production (%),[3]; 200 μM,86.51 ± 2.39%
same,"NO production, result in words","[3]; 50-200 μM, LPS",inhibit NO production in a concentration-dependent manner
same,Hyaluronic acid production (%),[4]; [5],105.1 ± 5.45%
same,Hyaluronic acid production (%),[4]; [6],123.64 ± 0.81%
same,Hyaluronic acid production (%),"[4]; 200 μM, 24 hours, untreated group = 100",132.68 ± 22.43%
same,"hyaluronic acid production, result in words","[4]; 50-200 μM, 24 hours",increase in hyaluronic acid production
same,Procollagen production (%),"[1]; 1 μM, 24 hours, untreated group = 100",103.47 ± 6.38%
same,Procollagen production (%),"[1]; 10 μM, 24 hours, untreated group = 100",110.79 ± 5.44%
same,Procollagen production (%),[1]; [5],121.67 ± 3.57%
same,Procollagen production (%),[1]; [6],132.38 ± 1.24%
same,"procollagen production, result in words","[1]; 1-100 μM, 24 hours",increase in procollagen production
"CC(=O)N[C@H]1C(O)O[C@H](CO)[C@@H](O)[C@@H]1O (stereo partly shown) [NAG, N-acetylglucosamine, reference compound]",activity at 10000 µM,"[4]; Homo sapiens, 24 h, 10 mM, positive control, untreated group = 100",121 ± 10.4%
